The source made the active and inactive calls.
What was measured:
[1] = target: T1, Cytochrome P450 1A2 (Homo sapiens, UniProt P05177);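 also: PubChem cytochrome P450 panel assay, CYP1A2 panel member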
T1 sequence (P05177 whole entry): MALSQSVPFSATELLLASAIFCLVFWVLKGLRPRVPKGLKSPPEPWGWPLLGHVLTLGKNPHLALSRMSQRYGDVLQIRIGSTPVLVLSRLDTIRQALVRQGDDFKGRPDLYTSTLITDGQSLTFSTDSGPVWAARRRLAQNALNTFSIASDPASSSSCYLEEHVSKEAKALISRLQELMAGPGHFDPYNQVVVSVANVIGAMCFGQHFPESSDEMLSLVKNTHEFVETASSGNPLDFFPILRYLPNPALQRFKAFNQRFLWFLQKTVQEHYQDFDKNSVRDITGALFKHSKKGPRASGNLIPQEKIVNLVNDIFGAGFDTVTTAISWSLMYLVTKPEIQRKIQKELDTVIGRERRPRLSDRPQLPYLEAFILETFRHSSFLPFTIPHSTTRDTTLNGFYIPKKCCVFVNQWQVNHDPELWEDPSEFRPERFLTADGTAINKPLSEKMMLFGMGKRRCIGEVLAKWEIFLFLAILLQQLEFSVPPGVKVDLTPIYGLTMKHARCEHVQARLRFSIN

[2] = target: T2, Cytochrome P450 3A4 (Homo sapiens, UniProt P08684);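 also: CYP3A4 tested as one member of a cytochrome P450 panel screen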
[3] = target: Cytochrome P450 2C19 (Homo sapiens, UniProt P33261); assay: Cytochrome panel assay with activity outcomes. Panel member name: p450-cyp2c19 Compounds with AC50 equal or less than 10 uM are considered active; format: functional; settings: read-out: AC50
[4] = target: T3, Cytochrome P450 2D6 (Homo sapiens, UniProt P10635);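 also: CYP2D6 member of a cytochrome P450 panel assay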
[5] = target: T2, Cytochrome P450 3A4; remark: listed apart in the source
[6] = target: Cytochrome P450 2C9 (Homo sapiens, UniProt P11712)
[7] = target: T3, Cytochrome P450 2D6; remark: listed apart in the source
[8] = target: Induced myeloid leukemia cell differentiation protein Mcl-1 (Homo sapiens, UniProt Q07820); assay: blockers of MCL1 binding to BIM peptide – biochemical, fluorescence polarization, BIM-BH3 peptide, 1536-well, dose response (AID 2217)
[9] = target: T4, Bcl-2-like protein 10 (Homo sapiens, UniProt Q9HD36); assay: Bcl-B/TR3 peptide binding disruption – biochemical, fluorescence polarization, FITC-TR3 peptide, selectivity assay for Bfl-1 inhibitor project, primary screen (AID 748);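 also: fluorescence polarization from a fluorescein-labelled TR3 peptide binding purified Bcl-B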
T4 sequence (Q9HD36 whole entry): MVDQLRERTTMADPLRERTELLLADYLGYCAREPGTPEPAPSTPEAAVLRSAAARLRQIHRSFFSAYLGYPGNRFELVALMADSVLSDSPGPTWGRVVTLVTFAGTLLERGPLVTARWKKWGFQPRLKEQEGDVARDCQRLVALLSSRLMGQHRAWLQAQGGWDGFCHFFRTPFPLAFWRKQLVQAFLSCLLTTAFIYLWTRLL

[10] = target: T5, Dual specificity protein phosphatase 6 (Rattus norvegicus, UniProt Q64346)
T5 sequence (Q64346 whole entry): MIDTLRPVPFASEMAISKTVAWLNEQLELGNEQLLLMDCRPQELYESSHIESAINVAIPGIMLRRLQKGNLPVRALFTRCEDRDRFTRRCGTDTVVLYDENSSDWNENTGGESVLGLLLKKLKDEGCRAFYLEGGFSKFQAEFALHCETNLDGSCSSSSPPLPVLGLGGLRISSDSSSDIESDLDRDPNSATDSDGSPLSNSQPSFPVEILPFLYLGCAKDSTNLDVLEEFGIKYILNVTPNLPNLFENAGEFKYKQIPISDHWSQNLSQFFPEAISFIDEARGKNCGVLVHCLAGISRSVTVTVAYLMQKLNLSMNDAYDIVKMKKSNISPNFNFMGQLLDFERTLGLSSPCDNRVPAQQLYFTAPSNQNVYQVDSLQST

[11] = target: T5, Dual specificity protein phosphatase 6; assay: inhibition of rat DUSP6 enzyme activity – biochemical, in vitro, primary screen (AID 425)
[12] = target: Glyceraldehyde-3-phosphate dehydrogenase (Homo sapiens, UniProt P04406)
[13] = target: T5, Dual specificity protein phosphatase 6; format: functional
[14] = target: T6, Tyrosine-protein phosphatase non-receptor type 7 (Homo sapiens, UniProt P35236); format: functional
T6 sequence (P35236 whole entry): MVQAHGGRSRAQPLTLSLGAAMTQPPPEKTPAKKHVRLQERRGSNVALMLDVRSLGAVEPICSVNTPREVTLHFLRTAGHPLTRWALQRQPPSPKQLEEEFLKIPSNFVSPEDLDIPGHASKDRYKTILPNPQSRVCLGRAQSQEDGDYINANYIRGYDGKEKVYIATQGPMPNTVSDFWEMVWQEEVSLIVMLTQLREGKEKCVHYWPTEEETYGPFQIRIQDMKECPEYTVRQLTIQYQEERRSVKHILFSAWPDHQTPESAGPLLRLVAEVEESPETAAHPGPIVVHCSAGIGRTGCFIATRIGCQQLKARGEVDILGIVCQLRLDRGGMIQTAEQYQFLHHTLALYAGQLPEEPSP

[15] = target: T7, Protein Tat (Human immunodeficiency virus type 1 group M subtype B (isolate HXB2)(HIV-1), UniProt P04608); format: functional;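 also: tat binding to TAR RNA read out by fluorescence polarization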
T7 sequence (P04608 whole entry): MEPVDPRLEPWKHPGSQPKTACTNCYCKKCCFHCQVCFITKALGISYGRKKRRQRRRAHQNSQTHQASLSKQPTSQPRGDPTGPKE

[16] = target: Bcl-2-like protein 1 (Homo sapiens, UniProt Q07817); assay: blockers of BCLXL peptide binding – biochemical, fluorescence polarization, 1536-well, selectivity assay for MCL1 inhibitor project, dose response (AID 2218)
[17] = target: Dual specificity protein phosphatase 3 (Homo sapiens, UniProt P51452); assay: SAR VHR1 Fluorescent Assay for In Vitro dose response studies. [Related pubchem assays (depositor defined):AID1654, AID1661, AID1878, AID1992, AID2004, AID2070, AID2085]; format: functional
[18] = target: T6, Tyrosine-protein phosphatase non-receptor type 7; assay: redox-active compounds inhibiting HePTP phosphatase – biochemical, fluorescence, mechanism study (AID 2068); format: functional
[19] = test system: INS1; assay: INS-1E survival protection against cytokine death – cell-based, luminescence, retest, dose response (AID 449756); format: functional; settings: Rattus norvegicus;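 also: cell death triggered by IL-1 beta plus TNF-alpha plus IFN-gamma mixture; protective hits raise ATP signal compared with cytokine alone wells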
[20] = target: T8, Protein RecA (Mycobacterium tuberculosis, UniProt P9WHJ3); assay: Fluorescence Cell-Free Homogeneous Dose Retest to Identify Inhibitors of RecA-Intein Splicing Activity. [Related pubchem assays (depositor defined):AID2097, AID2223, AID489010, AID492950]; format: functional
T8 sequence (P9WHJ3 whole entry): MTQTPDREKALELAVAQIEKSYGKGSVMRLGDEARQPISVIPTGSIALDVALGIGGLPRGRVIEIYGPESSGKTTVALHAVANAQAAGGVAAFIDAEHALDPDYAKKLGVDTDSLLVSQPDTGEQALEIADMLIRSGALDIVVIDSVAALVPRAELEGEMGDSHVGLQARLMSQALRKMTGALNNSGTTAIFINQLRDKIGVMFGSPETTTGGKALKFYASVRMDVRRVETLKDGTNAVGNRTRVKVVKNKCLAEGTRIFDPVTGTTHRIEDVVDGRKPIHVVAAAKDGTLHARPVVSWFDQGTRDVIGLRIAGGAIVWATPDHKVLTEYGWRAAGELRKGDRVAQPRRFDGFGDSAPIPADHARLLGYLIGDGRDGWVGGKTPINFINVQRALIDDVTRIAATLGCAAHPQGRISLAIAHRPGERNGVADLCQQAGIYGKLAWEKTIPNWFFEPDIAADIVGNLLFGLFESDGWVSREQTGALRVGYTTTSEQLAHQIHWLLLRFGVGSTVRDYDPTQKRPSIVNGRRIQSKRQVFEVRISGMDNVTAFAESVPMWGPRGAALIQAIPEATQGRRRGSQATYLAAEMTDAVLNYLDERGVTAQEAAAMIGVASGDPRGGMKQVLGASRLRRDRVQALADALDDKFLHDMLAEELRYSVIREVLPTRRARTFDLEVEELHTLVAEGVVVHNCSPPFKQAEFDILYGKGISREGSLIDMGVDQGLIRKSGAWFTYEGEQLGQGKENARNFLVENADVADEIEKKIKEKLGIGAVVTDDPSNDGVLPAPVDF

[21] = target: T9, Replicative DNA helicase DnaB (Mycobacterium tuberculosis, UniProt P9WMR3); assay: DnaB intein splicing inhibitors, dose response, biochemical, cell-free fluorescence (AID 449749); format: functional
T9 sequence (P9WMR3 whole entry): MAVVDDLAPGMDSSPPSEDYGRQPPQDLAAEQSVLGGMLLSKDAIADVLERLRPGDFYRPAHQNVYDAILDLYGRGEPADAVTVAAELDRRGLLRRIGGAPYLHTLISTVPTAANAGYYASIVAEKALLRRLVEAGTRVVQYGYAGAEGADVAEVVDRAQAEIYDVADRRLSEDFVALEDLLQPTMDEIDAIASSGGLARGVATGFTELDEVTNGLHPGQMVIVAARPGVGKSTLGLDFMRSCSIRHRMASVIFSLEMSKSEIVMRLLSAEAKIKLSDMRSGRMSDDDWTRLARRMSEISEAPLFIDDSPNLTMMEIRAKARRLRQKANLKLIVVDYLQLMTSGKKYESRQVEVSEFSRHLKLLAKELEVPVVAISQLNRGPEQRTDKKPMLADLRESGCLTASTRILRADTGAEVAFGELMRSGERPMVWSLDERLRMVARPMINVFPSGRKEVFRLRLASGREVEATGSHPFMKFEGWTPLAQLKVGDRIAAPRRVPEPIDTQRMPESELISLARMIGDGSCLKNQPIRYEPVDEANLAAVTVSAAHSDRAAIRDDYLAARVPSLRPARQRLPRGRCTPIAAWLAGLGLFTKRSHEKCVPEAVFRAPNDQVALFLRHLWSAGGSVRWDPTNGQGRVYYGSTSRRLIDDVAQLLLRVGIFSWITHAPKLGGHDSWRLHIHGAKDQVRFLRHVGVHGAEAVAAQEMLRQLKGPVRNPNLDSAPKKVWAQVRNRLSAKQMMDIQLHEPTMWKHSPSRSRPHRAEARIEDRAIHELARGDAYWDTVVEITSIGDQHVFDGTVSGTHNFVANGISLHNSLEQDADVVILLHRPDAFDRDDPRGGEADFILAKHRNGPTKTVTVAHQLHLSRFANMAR

[22] = target: Keap1/Nrf2 (Homo sapiens, UniProt Q14145); assay: disruptors of Keap1 binding to Nrf2 peptide – biochemical, fluorescence polarization, cherry-picked samples, dose response (AID 588683)
[23] = target: T10, Protein skinhead-1 (Caenorhabditis elegans, UniProt P34707); format: functional
T10 sequence (P34707 whole entry): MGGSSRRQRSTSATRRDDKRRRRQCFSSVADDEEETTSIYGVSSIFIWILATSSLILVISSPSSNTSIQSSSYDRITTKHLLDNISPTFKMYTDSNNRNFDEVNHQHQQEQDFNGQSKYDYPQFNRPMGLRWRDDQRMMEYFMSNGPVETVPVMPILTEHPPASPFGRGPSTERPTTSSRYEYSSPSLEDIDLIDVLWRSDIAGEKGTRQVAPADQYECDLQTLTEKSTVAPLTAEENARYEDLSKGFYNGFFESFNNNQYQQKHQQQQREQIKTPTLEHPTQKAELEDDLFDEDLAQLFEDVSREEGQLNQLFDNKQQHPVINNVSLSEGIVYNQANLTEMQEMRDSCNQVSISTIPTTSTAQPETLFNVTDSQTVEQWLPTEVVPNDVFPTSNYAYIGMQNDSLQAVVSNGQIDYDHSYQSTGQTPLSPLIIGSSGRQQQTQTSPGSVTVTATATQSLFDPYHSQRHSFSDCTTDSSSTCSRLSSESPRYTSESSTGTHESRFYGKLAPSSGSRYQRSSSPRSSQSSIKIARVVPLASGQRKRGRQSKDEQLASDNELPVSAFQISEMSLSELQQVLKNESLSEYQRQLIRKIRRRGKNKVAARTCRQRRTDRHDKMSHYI

[24] = target: G-protein coupled receptor 55 (Homo sapiens, UniProt Q9Y2T6); assay: blockers of GPR55 signalling, imaged – imaging, image-based, counter-screen for GPR35 antagonist project, SAR follow-up (AID 2397); format: functional
[25] = Intein inhibitors as potential Tuberculosis drugs, a cytotoxicity screen. [Related pubchem assays (depositor defined):AID2221, AID2223, AID434968, AID435010, AID449749, AID449750, AID489010]; format: functional
[26] = target: UDP-galactopyranose mutase (Mycobacterium tuberculosis, UniProt P9WIQ1); assay: Inhibitors of Mycobacterium tuberculosis UDP-galactopyranose mutase (UGM) enzyme Measured in Biochemical System Using Plate Reader - 2105-02_Inhibitor_Dose_CherryPick_Activity. [Related pubchem assays (depositor defined):AID504439]
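For CC50 in this document: cells exposed to compound for 72 hours before luminescence readout.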

T3 sequence (P10635 whole entry): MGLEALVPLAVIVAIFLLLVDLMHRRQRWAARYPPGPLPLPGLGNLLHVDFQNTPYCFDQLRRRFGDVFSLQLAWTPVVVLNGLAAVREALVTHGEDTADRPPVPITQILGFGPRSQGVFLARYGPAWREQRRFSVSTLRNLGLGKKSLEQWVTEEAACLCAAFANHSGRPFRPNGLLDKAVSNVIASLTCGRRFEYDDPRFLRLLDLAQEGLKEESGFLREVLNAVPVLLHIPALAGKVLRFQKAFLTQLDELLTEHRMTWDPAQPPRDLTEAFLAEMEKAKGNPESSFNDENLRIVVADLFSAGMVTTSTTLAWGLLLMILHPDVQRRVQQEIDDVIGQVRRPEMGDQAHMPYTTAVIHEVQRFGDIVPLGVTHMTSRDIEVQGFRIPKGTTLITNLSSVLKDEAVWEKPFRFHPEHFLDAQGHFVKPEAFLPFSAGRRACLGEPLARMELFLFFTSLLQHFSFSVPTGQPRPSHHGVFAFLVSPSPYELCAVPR
T2 sequence (P08684 whole entry): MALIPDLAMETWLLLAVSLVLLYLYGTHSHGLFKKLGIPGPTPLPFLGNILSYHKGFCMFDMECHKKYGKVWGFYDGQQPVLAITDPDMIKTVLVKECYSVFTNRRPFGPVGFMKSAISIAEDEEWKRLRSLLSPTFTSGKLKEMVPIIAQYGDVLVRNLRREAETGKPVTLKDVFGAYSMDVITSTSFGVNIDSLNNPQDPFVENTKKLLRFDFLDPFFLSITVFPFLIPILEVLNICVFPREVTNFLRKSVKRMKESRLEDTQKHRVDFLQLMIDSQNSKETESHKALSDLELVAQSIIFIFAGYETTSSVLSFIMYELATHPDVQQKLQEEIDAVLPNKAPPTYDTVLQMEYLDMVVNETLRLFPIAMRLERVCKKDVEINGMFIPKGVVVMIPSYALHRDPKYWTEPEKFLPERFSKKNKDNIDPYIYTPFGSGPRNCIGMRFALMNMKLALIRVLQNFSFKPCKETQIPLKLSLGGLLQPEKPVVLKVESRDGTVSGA
Chain of UDP-galactopyranose mutase (P9WIQ1 whole entry): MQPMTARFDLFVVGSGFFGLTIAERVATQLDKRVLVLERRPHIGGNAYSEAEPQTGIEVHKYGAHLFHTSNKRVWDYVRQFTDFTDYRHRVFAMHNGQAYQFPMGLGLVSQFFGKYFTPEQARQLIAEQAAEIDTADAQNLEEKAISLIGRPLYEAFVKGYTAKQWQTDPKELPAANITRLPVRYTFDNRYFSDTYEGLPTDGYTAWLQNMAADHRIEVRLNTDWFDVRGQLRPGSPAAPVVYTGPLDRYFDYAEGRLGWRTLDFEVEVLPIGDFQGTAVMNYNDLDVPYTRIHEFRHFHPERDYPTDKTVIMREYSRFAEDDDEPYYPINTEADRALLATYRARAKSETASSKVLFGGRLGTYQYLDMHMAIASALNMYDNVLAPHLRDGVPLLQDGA
Chain of G-protein coupled receptor 55 (Q9Y2T6 whole entry): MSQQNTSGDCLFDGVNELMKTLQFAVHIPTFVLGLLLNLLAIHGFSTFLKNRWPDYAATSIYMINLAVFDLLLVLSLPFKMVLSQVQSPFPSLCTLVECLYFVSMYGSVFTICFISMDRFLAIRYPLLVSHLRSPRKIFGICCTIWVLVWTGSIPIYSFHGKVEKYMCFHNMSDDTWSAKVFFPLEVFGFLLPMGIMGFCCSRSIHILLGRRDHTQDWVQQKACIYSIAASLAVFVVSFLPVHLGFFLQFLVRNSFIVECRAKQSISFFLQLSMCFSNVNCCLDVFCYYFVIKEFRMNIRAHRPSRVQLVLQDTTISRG
Chain of Induced myeloid leukemia cell differentiation protein Mcl-1 (Q07820 whole entry): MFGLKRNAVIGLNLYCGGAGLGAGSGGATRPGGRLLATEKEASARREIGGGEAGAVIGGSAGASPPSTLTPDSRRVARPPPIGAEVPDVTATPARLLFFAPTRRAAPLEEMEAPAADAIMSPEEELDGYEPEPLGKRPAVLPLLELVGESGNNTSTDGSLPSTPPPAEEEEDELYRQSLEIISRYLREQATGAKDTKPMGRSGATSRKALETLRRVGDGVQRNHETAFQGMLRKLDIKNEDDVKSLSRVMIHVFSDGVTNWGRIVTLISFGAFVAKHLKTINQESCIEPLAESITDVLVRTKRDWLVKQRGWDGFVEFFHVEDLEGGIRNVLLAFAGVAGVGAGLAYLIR
Chain of Dual specificity protein phosphatase 3 (P51452 whole entry): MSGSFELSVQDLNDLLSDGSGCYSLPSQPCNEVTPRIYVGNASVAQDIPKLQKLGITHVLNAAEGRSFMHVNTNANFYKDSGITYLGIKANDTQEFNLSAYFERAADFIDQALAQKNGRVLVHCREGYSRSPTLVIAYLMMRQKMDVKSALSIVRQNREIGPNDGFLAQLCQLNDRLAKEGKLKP
Chain of Cytochrome P450 2C9 (P11712 whole entry): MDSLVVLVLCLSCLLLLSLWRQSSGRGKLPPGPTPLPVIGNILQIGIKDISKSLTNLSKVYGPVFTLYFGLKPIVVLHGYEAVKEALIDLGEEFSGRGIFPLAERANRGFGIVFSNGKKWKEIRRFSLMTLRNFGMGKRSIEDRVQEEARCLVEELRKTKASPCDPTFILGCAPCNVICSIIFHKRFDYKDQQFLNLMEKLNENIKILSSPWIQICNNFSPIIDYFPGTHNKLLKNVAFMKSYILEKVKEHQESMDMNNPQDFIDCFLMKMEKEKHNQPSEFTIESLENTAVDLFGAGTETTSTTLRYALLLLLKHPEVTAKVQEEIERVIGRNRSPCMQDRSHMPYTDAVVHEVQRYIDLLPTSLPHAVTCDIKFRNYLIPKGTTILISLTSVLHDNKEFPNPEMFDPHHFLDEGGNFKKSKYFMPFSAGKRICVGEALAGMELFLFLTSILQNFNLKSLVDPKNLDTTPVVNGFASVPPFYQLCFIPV
Chain of Glyceraldehyde-3-phosphate dehydrogenase (P04406 whole entry): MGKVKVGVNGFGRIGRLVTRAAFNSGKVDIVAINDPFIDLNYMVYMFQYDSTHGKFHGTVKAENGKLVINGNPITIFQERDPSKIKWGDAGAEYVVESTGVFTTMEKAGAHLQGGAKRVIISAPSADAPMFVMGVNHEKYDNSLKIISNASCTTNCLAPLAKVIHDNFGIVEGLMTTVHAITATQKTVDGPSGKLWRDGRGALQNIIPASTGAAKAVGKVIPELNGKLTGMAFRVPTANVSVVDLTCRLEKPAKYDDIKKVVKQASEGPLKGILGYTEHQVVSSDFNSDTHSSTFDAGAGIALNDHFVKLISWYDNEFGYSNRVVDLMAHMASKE
Chain of Keap1/Nrf2 (Q16236 whole entry): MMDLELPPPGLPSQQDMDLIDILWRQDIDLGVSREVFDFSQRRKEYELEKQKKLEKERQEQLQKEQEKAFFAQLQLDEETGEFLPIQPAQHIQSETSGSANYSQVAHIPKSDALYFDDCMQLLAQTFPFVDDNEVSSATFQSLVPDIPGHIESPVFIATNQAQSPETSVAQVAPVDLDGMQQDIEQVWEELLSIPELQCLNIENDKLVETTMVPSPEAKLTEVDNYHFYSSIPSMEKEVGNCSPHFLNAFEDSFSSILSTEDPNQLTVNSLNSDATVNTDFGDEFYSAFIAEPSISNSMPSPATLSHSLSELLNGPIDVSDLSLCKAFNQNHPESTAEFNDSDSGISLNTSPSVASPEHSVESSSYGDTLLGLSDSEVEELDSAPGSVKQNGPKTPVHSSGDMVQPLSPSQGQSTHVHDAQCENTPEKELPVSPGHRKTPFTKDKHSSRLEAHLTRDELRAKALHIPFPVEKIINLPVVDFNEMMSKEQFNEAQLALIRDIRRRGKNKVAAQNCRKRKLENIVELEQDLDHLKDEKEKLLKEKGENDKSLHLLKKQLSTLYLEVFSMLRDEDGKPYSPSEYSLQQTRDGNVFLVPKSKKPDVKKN
Chain of Keap1/Nrf2 (Q14145 whole entry): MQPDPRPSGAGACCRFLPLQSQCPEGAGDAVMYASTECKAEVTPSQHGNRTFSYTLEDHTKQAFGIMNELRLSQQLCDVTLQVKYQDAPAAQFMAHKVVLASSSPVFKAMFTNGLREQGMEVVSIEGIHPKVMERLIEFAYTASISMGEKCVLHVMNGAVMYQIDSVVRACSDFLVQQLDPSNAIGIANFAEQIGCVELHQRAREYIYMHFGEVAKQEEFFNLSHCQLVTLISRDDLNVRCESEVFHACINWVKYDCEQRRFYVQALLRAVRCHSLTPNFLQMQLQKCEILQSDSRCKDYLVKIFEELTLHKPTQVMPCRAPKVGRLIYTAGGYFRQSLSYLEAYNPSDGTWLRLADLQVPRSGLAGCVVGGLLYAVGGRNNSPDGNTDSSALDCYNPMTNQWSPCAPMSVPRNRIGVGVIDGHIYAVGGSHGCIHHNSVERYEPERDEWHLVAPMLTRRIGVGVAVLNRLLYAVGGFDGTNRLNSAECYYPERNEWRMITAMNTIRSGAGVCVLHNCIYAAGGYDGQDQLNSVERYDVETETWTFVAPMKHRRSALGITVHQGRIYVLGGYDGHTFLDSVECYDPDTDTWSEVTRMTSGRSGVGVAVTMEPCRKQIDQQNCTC
Chain of Bcl-2-like protein 1 (Q07817 whole entry): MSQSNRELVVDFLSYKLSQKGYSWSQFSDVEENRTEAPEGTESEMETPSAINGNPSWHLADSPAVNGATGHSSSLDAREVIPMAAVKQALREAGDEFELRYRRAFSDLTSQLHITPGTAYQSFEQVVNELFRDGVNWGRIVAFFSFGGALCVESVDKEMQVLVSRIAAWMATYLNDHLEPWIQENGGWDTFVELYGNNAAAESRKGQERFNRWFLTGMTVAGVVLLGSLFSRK

## CC(C)(C)c1ccc(-c2nnc(SCC(=O)c3ccc4c(c3)OCCO4)o2)cc1
[1]
  AC50: 2.24 µM (inconclusive)
[2]
  AC50: 39.8 µM (inconclusive)
[3]
  AC50: 3.98 µM (inconclusive)
[4]
  AC50: inconclusive

## COC(=O)C1Cc2c([nH]c3ccccc23)CN1 (stereo not drawn)
[5]
  AC50: inconclusive
[6]
  AC50: 25.1 µM (inconclusive)
[7]
  AC50: 14.1 µM (inconclusive)

## c1ccc(CSc2nnc(-c3ccco3)c(-c3ccco3)n2)cc1
[8]
  IC50: 2.92 µM (active)
[9]
  IC50: 5.55 µM (active)
[10]
  IC50: 23.9 µM (active)
[11]
  IC50: > 10 µM (not active)
[12]
  IC50: > 100 µM (not active)
[13]
  IC50: 24.2 µM (active)
[14]
  IC50: 13.3 µM (active)
[15]
  IC50: 4.04 µM (inconclusive)
[16]
  IC50: > 109 µM (not active)
[17]
  IC50: 7.06 µM (active)
[18]
  IC50: 0.284 µM (active)

## Cc1ccc(S(=O)(=O)Nc2ccc(O)c3ccccc23)c(C)c1
[19]
  AC50: 5.61 µM (active)
[20]
  EC50: 0.0702 µM (active)
[21]
  AC50: 0.132 µM (active)
[22]
  AC50: > 52 µM (inactive)

## O=C(CCCN1C(=O)/C(=C/c2cccs2)SC1=S)Nc1ccc(O)cc1
[23]
  IC50: > 100 µM (inactive)
[24]
  IC50: 30.5 µM (inactive)
[20]
  EC50: 3.25 µM (active)
[25]
  CC50: 28.5 µM (active)
[21]
  AC50: 2.11 µM (active)

## COCCNC(=O)Cn1cc(C=C2C(=O)NC(=O)NC2=O)c2ccccc21
[26]
  AC50: 46.3 µM (active)
